For 54 compounds, IC50 results are on record in ChEMBL document CHEMBL3714729, “Heterocyclic compounds for the inhibition of pask” (2012).

Assay [1] has as its target T1, PAS domain-containing serine/threonine-protein kinase (Homo sapiens, UniProt Q96RG2). Nature of the assay: Inhibition of purified full-length human PASK expressed in insect cells using MBP protein substrate incubated for 10 mins before ATP addition and measured after 1 hr by kinase-Glo luminescent kinase assay.
Assay [2] has as its target T1, PAS domain-containing serine/threonine-protein kinase. Nature of the assay: Inhibition of purified human PASK kinase domain expressed in insect cells using MBP protein substrate incubated for 10 mins before ATP addition and measured after 1 hr by kinase-Glo luminescent kinase assay. For orientation: Kinase-Glo reads ATP consumption through a luciferase reaction.
The target is the same in assay [3]. Nature of the assay: Inhibition of N-terminal GST-tagged human recombinant PASK kinase domain (879 to 1323 residues) expressed in insect cells using MBP protein substrate incubated for 120 mins in presence of [33P]ATP by scintillation counting based radiochemical assay.
For assay [4] the target is unchanged. Nature of the assay: Inhibition of human recombinant PASK using Ulight-peptide substrate incubated for 2 hrs by TR-FRET assay. Background: TR-FRET usually uses a lanthanide donor and a delayed reading to cut background.
The target in assay [5] is Casein kinase II subunit alpha' (Homo sapiens, UniProt P19784). Nature of the assay: Inhibition of GST-tagged full-length purified human CK2a2 using RRRDDDSDDD substrate incubated for 120 mins in presence of [33P]ATP by scintillation counting based biochemical assay.
Sequence of Casein kinase II subunit alpha' (P19784 whole entry): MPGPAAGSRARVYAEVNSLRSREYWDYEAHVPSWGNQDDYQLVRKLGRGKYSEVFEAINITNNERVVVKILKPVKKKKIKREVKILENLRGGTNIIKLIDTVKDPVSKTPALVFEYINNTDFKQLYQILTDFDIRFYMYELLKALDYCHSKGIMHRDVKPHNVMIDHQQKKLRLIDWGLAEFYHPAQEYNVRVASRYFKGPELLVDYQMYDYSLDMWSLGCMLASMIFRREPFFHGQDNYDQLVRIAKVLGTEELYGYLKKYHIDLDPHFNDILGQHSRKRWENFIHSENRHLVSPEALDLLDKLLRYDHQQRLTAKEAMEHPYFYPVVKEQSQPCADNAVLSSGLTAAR

T1 sequence (Q96RG2 whole entry, the tested form may be a part): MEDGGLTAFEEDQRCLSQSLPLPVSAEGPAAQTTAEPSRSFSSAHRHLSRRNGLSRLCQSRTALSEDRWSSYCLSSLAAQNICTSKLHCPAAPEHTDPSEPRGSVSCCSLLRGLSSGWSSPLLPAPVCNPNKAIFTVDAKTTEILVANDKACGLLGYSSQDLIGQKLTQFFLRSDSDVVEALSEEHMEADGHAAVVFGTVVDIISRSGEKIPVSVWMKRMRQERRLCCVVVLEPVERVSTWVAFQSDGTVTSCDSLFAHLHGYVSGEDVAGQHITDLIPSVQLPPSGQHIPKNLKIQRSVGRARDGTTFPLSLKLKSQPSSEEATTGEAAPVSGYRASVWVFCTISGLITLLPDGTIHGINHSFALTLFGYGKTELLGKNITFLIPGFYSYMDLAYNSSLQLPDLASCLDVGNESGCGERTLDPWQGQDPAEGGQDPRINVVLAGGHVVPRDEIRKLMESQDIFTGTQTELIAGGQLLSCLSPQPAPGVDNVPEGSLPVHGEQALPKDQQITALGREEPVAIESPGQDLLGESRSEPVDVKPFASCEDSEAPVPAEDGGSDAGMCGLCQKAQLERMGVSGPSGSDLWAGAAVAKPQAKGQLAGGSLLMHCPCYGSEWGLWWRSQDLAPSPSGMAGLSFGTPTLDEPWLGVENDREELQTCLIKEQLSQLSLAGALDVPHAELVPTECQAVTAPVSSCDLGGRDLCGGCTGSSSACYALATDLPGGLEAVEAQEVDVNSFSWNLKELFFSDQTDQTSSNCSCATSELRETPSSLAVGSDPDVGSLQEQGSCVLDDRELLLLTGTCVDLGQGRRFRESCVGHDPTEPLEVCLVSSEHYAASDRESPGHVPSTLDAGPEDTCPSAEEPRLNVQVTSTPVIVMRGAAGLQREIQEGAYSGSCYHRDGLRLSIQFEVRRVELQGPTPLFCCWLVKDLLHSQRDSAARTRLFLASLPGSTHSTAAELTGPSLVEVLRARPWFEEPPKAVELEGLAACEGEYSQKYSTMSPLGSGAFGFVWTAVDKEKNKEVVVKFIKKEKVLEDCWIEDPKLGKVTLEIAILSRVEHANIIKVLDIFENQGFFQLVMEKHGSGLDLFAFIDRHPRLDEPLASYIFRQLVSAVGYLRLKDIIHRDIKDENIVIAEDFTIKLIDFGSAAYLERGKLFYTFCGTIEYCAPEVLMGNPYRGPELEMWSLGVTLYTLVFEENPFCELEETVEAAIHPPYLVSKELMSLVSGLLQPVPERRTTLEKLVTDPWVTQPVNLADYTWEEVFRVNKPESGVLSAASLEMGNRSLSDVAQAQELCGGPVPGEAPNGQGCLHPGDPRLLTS

Broadly, the IC50 is the midpoint of a concentration-inhibition curve. As to `Cc1nn2c(=O)cc(-c3ccc(Cl)cc3)[nH]c2c1-c1ccccc1`, the IC50 in assay [1] and in assay [2] was at most 10 µM each time.

`O=c1cc(-c2ccc3[nH]nnc3c2)[nH]c2c(-c3cccnc3)cnn12`: the IC50 in assay [3], in assay [4] and in assay [5] was at most 10 µM throughout.

Regarding `CCCNC(=O)c1cnn2c(=O)cc(-c3ccc4[nH]nnc4c3)[nH]c12`, the IC50 in assay [3], in assay [4] and in assay [5] was at most 10 µM throughout.

Regarding `CCc1c(C)[nH]c2c(-c3ccc(Cl)cc3)c(C)nn2c1=O`, the concentration for half-maximal inhibition (IC50) in assay [1] and in assay [2] was at least 10 µM in each case.

For `O=c1c2c([nH]c3c(-c4ccc(Cl)cc4)c(Cc4ccccc4)nn13)CCC2`, the IC50 in assay [1] and in assay [2] was at least 10 µM in each case.

As for `Cc1nn2c(=O)c3c([nH]c2c1-c1ccc(Cl)cc1)CCC3`, the IC50 in assay [1] and in assay [2] was at least 10 µM in each case.

`Cc1nn2c(=O)cc(-c3ccc4c(c3)OCO4)[nH]c2c1Cc1ccccn1`: the IC50 in assay [3], in assay [4] and in assay [5] was at most 10 µM throughout.

`O=c1cc(-c2ccc3[nH]nnc3c2)[nH]c2c(-c3ccc(Cl)cc3)cnn12`: the IC50 in assay [3], in assay [4] and in assay [5] was at most 10 µM in each case.

`CCCNC(=O)c1c(N)nn2c(=O)cc(-c3ccc4[nH]nc(C)c4c3)[nH]c12`: the IC50 in assay [3], in assay [4] and in assay [5] was at most 10 µM each time.

Take `O=c1cc(-c2ccc(-c3ncco3)cc2)[nH]c2c(-c3ccccn3)cnn12`: the IC50 in assay [3] is at most 10 µM; in assay [4], at most 10 µM; in assay [5] it was at least 10 µM.

As to `COc1ccc(-c2c(Cc3ccccc3)nn3c(=O)cc(-c4ccccc4)[nH]c23)cc1`, in assay [1], the IC50 was at least 10 µM.

For the compound `O=c1cc(-c2cc3nn[nH]c3cc2F)[nH]c2c(-c3ccccn3)cnn12`, the IC50 in assay [3], in assay [4] and in assay [5] was at most 10 µM in each case.

For `CCCNC(=O)c1c(O)nn2c(=O)cc(-c3ccc4c(c3)OCO4)[nH]c12`, the IC50 in assay [3], in assay [4] and in assay [5] was at most 10 µM in each case.

As to `O=c1cc(Cc2ccccc2)[nH]c2c(-c3ccccc3)c(-c3ccccc3)nn12`, the IC50 in assay [1] and in assay [2] was at least 10 µM each time.

Take `COc1c(-c2cc(=O)n3ncc(-c4ccccn4)c3[nH]2)ccc2[nH]nnc12`: the IC50 in assay [3], in assay [4] and in assay [5] was at most 10 µM in each case.

As to `COc1ccc(-c2cc(=O)n3nc(C)c(-c4ccccc4)c3[nH]2)cc1`, the IC50 in assay [1] and in assay [2] was at most 10 µM each time.

Compound `O=c1c2c([nH]c3c(-c4ccccc4)c(-c4ccccc4)nn13)CCC2` yielded an IC50 in assay [1] of at least 10 µM.

Take `Nc1nn2c(=O)cc(-c3ccc4[nH]nnc4c3)[nH]c2c1-c1ccc(Cl)cc1`: the IC50 in assay [3], in assay [4] and in assay [5] was at most 10 µM each time.

For the compound `CCCc1cc(=O)n2nc(Cc3ccccc3)c(-c3ccc(Cl)cc3)c2[nH]1`, the IC50 in assay [1] and in assay [2] was at least 10 µM each time.

Turning to `O=c1cc(-c2ccccc2)[nH]c2c(-c3ccc(Cl)cc3)c(Cc3ccccc3)nn12`, the IC50 in assay [1] and in assay [2] was at least 10 µM each time.

`Cc1nn2c(=O)c(C#N)c(-c3ccccc3)[nH]c2c1-c1ccccc1` registered an IC50 in assay [1] of at least 10 µM.

With `COc1ccc(Cc2nn3c(=O)cc(-c4ccccc4)[nH]c3c2-c2ccccc2)cc1`, the IC50 in assay [1] and in assay [2] was at least 10 µM each time.

For `N#Cc1ccc(-c2cc(=O)n3ncc(-c4ccccn4)c3[nH]2)cc1`, the IC50 in assay [3] is at most 10 µM; in assay [4], at most 10 µM; in assay [5], at least 10 µM.

As for `O=c1cc(-c2ccc([N+](=O)[O-])cc2)[nH]c2c(-c3ccc(Cl)cc3)c(Cc3ccccc3)nn12`, the IC50 in assay [1] and in assay [2] was at most 10 µM each time.

`Cc1cc(=O)n2nc(-c3ccc(Cl)cc3)cc2[nH]1`: in assay [1], the IC50 is at most 10 µM.

On to `O=c1cc(Cc2ccccc2)[nH]c2c(-c3ccccc3)c(Cc3ccccc3)nn12`, for which the IC50 in assay [1] and in assay [2] was at least 10 µM each time.

Take `Cc1nn2c(=O)cc(-c3ccc([N+](=O)[O-])cc3)[nH]c2c1-c1ccc(Cl)cc1`: the IC50 in assay [1] and in assay [2] was at most 10 µM in each case.

Take `COc1c(-c2cc(=O)n3nc(C)c(-c4ccccn4)c3[nH]2)ccc2c1OCO2`: the IC50 in assay [3], in assay [4] and in assay [5] was at most 10 µM throughout.

With `Cc1nn2c(=O)cc(-c3ccccc3)[nH]c2c1-c1ccc(F)cc1`, the IC50 in assay [1] and in assay [2] was at least 10 µM throughout.

For the compound `COCc1cc(=O)n2nc(Cc3ccccc3)c(-c3ccc(Cl)cc3)c2[nH]1`, the IC50 in assay [1] and in assay [2] was at least 10 µM in each case.

With `O=c1cc(-c2ccccc2)[nH]c2c(-c3ccccc3)c(Cc3ccccc3)nn12`, in assay [1], the IC50 is at least 10 µM.

As to `COc1cc2[nH]nnc2cc1-c1cc(=O)n2nc(N)c(-c3ccccn3)c2[nH]1`, the figures for the IC50 in assay [3], in assay [4] and in assay [5] were at most 10 µM, at most 10 µM and at least 10 µM, respectively.

Regarding `CCc1c(C)[nH]c2c(-c3ccccc3)c(Cc3ccc(OC)cc3)nn2c1=O`, the IC50 in assay [1] and in assay [2] was at least 10 µM in each case.

In the case of `CCCNC(=O)c1c(N)nn2c(=O)cc(-c3ccc(Cl)cc3)[nH]c12`, the IC50 in assay [3], in assay [4] and in assay [5] was at most 10 µM in each case.

In the case of `COCc1cc(=O)n2nc(Cc3ccccc3)c(-c3ccc(OC)cc3)c2[nH]1`, the IC50 in assay [1] and in assay [2] was at least 10 µM throughout.

Turning to `Cc1ccc(-c2cc(=O)n3nc(C)c(-c4ccccc4)c3[nH]2)cc1`, the IC50 in assay [1] and in assay [2] was at least 10 µM in each case.

Regarding `COc1ccccc1-c1cc(=O)n2nc(C)c(-c3ccccc3)c2[nH]1`, the IC50 in assay [1] and in assay [2] was at most 10 µM each time.

Take `COc1c(-c2cc(=O)n3nc(N)c(-c4ccccn4)c3[nH]2)ccc2c1OCO2`: the IC50 in assay [3], in assay [4] and in assay [5] was at most 10 µM in each case.

With `Cc1[nH]c2c(-c3ccc(Cl)cc3)cnn2c(=O)c1Cc1ccccc1`, the IC50 in assay [1] and in assay [2] was at most 10 µM each time.

Turning to `CCCc1cc(=O)n2nc(C)c(-c3ccc(Cl)cc3)c2[nH]1`, the IC50 in assay [1] and in assay [2] was at least 10 µM each time.

Consider `CC(=O)Nc1nn2c(=O)cc(-c3ccc4c(cnn4C)c3)[nH]c2c1-c1ccccn1`, for which the IC50 in assay [3], in assay [4] and in assay [5] was at most 10 µM each time.

Regarding `CCc1nn2c(=O)cc(-c3ccc4[nH]nnc4c3)[nH]c2c1-c1ccccn1`, the IC50 in assay [3], in assay [4] and in assay [5] was at most 10 µM in each case.

For `COc1ccc(-c2nn3c(=O)cc(C(C)C)[nH]c3c2-c2ccccc2)cc1`, the IC50 in assay [1] and in assay [2] was at least 10 µM each time.

Turning to `COc1ccc(Cc2nn3c(=O)cc(C)[nH]c3c2-c2ccccc2)cc1`, the IC50 in assay [1] and in assay [2] was at least 10 µM each time.

For the compound `COc1c(-c2cc(=O)n3nc(O)c(-c4ccccn4)c3[nH]2)ccc2c1OCO2`, the IC50 in assay [3], in assay [4] and in assay [5] was at most 10 µM in each case.

Turning to `CCCNC(=O)c1c(N)nn2c(=O)cc(-c3ccc4[nH]nnc4c3)[nH]c12`, the IC50 in assay [3], in assay [4] and in assay [5] was at most 10 µM in each case.

`Cc1cc(=O)n2nc(C)c(-c3ccc(Cl)cc3)c2[nH]1`: the IC50 in assay [1] and in assay [2] was at least 10 µM in each case.

In turn, `Cc1cc(=O)n2nc(-c3cccc(Br)c3)cc2[nH]1` returned an IC50 in assay [1] of at most 10 µM.

As for `O=c1cc(-c2ccccc2)[nH]c2c(-c3cccc4ccccc34)c(Cc3ccccc3)nn12`, the IC50 in assay [1] and in assay [2] was at least 10 µM throughout.

In the case of `COCc1cc(=O)n2nc(-c3ccc(Cl)cc3)cc2[nH]1`, the IC50 in assay [1] and in assay [2] was at least 10 µM each time.

For the compound `COc1ccc(-c2c(C)nn3c(=O)cc(Cc4ccccc4)[nH]c23)cc1`, the 50% inhibitory concentration (IC50) in assay [1] and in assay [2] was at least 10 µM each time.

Turning to `Cc1nn2c(=O)cc(-c3ccccc3)[nH]c2c1-c1ccc(Cl)cc1`, the IC50 in assay [1] and in assay [2] was at most 10 µM each time.

Take `COc1ccc(-c2cc(=O)n3nc(C)c(-c4ccc(F)cc4)c3[nH]2)cc1`: the IC50 in assay [1] and in assay [2] was at most 10 µM each time.

In turn, `COc1ccc(-c2c(C)nn3c(=O)cc(-c4ccccc4)[nH]c23)cc1` had an IC50 in assay [1] of at least 10 µM.
